# Experimental data from patent US20240139260A1, “MICROBIAL STRAIN COMPOSITIONS” (MICROBIAL DISCOVERY GROUP, LLC, priority 2022, published 2024).
# Where two headings read alike, the source gives them in different places.
# Columns and labels:
# [1] = system: Bacillus strain BC1 (NRRL No. B-67744); assay: Antibiotic resistance, phenotypic MICs of medical antibiotics; type: cell-based, Bacillus coagulans; conditions: for MIC: Bacillus
# [2] = system: Bacillus strain (NRRL No. B-68054); assay: Antibiotic resistance, Minimum Inhibitory Concentrations (MICs) Against Medical Antibiotics; type: cell-based, Bacillus subtilis
# Excerpt: (§1) The inventors have assessed resistance phenotypically. A bacterial strain is defined by EFSA as susceptible when its growth is inhibited at concentration of a specific antibiotic that is equal to or lower than the established cut-off value for that particular species. A bacterial strain is defined as resistant when it is able to grow at a concentration of a specific antibiotic that is higher than the established cut-off. The inventors utilized both the EFSA and CLSI guidelines for determining susceptibility and resistance interpreted through their defined cut-off values.
# [3] = system: Bacillus strain (NRRL No. B-68053); assay: as above; type: cell-based, Bacillus subtilis
# Excerpt: as §1, with “cut-off. We” for “cut-off. The inventors”
# [4] = NRRLB67744, MIC of the antibiotic against the strain, triplicate, read-out: NRRL No. B-67744 ug/ml (triplicate)
# [5] = Bacillus, NRRLB68054; read-out: NRRL No. B-68054 ug/mL (triplicate), Minimum Inhibitory Concentration
# [6] = Bacillus, NRRLB68053; read-out: NRRL No. B-68053 ug/mL (triplicate), Minimum Inhibitory Concentration
# [7] = Bacillus, NRRLB68054, read-out: NRRL No. B-68054 ug/mL (triplicate), Minimum Inhibitory Concentration
# [8] = Bacillus, NRRLB68053, read-out: NRRL No. B-68053 ug/mL (triplicate), Minimum Inhibitory Concentration
Compound,"MIC [1, 4] [µg/mL]","MIC [2, 5] [µg/mL]","MIC [3, 6] [µg/mL]",further results
O=C(N[C@H](CO)[C@H](O)c1ccc([N+](=O)[O-])cc1)C(Cl)Cl [Chloramphenicol],0.016,1.5,3,
O=C(O)c1cn(C2CC2)c2cc(N3CCNCC3)c(F)cc2c1=O [Ciprofloxacin],,,0.94,
CCC[C@@H]1C[C@@H](C(=O)N[C@@H]([C@H]2O[C@H](SC)[C@H](O)[C@@H](O)[C@H]2O)[C@H](C)Cl)N(C)C1 [Clindamycin],0.016,0.5,1,
CC[C@H]1OC(=O)[C@H](C)[C@@H](O[C@H]2C[C@@](C)(OC)[C@@H](O)[C@H](C)O2)[C@H](C)[C@@H](O[C@@H]2O[C@H](C)C[C@H](N(C)C)[C@H]2O)[C@](C)(O)C[C@@H](C)C(=O)[C@H](C)[C@@H](O)[C@]1(C)O [Erythromycin],0.125,0.047,0.064,
NC[C@H]1O[C@H](O[C@H]2[C@H](O)[C@@H](O[C@H]3O[C@H](CO)[C@@H](O)[C@H](N)[C@H]3O)[C@H](N)C[C@@H]2N)[C@H](O)[C@@H](O)[C@@H]1O [Kanamycin],0.016,0.75,0.75,
CC(=O)NC[C@H]1CN(c2ccc(N3CCOCC3)c(F)c2)C(=O)O1 [Linezolid],0.75,0.25,1,
CO[C@H]1/C=C/O[C@@]2(C)Oc3c(C)c(O)c4c(O)c(c(/C=N/N5CCN(C)CC5)c(O)c4c3C2=O)NC(=O)/C(C)=C\C=C\[C@H](C)[C@H](O)[C@@H](C)[C@@H](O)[C@@H](C)[C@H](OC(C)=O)[C@@H]1C [Rifampin],0.25,0.5,0.25,
[H]/N=C(/N)N[C@H]1[C@H](O)[C@@H](O)[C@H](O[C@@H]2O[C@@H](C)[C@](O)(C=O)[C@H]2O[C@@H]2O[C@@H](CO)[C@H](O)[C@@H](O)[C@@H]2NC)[C@@H](N/C(N)=N\[H])[C@@H]1O [Streptomycin],1.5,4,8,
CN(C)[C@@H]1C(O)=C(C(N)=O)C(=O)[C@@]2(O)C(O)=C3C(=O)c4c(O)cccc4[C@@](C)(O)[C@H]3C[C@@H]12 [Tetracycline],1.25,6,12,
CN(C)c1cc(NC(=O)CNC(C)(C)C)c(O)c2c1C[C@H]1C[C@H]3[C@H](N(C)C)C(O)=C(C(N)=O)C(=O)[C@@]3(O)C(O)=C1C2=O [Tigecycline],,,,"MIC ([1]; NRRLB67744, read-out: NRRL No. B-67744 ug/ml (triplicate)): 0.064 µg/mL; MIC [2, 7]: 0.064 µg/mL; MIC [3, 8]: 0.094 µg/mL"
CN[C@H](CC(C)C)C(=O)N[C@H]1C(=O)N[C@@H](CC(N)=O)C(=O)N[C@H]2C(=O)N[C@H]3C(=O)N[C@H](C(=O)N[C@H](C(=O)O)c4cc(O)cc(O)c4-c4cc3ccc4O)[C@H](O)c3ccc(c(Cl)c3)Oc3cc2cc(c3O[C@@H]2O[C@H](CO)[C@@H](O)[C@H](O)[C@H]2O[C@H]2C[C@](C)(N)[C@H](O)[C@H](C)O2)Oc2ccc(cc2Cl)[C@H]1O [Vancomycin],0.38,,,"MIC [2, 7]: 0.75 µg/mL; MIC [3, 8]: 0.5 µg/mL"
Gentamicin,,,,"NRRL No. B-67744 ug/ml (triplicate) ([1]; MIC of the antibiotic against the strain, triplicate): 0.023 µg/mL; NRRL No. B-68054 ug/mL (triplicate), Minimum Inhibitory Concentration ([2]; triplicate): 0.125 µg/mL; NRRL No. B-68053 ug/mL (triplicate), Minimum Inhibitory Concentration ([3]; triplicate): 0.094 µg/mL"
